Reference: patent US10035795B1, “Phenothiazine derivatives having CaM inhibitory activity” (KOREA INSTITUTE OF SCIENCE AND TECHNOLOGY, priority 2017, dated 2018)

Test system: U87MG cells
Experiment: Calcium imaging (Ca2+ imaging): change in the calcium level of the cells, Fura-2 340/380 ratio
Format: cell-based
Settings: 100 μM in HEPES buffer, average 340/380 ratio reactivity for 200 seconds relative to TFP (trifluoperazine) as 100%
Method: Calcium Imaging (Ca^2+ Imaging)
Calcium imaging was conducted as follows in order to measure the change in the calcium level in […] (glioblastoma cells) by TFP (trifluoperazine) and the phenothiazine derivative represented by Chemical Formula 1 according to the present invention. First, after placing a polylysine (PDL)-coated coverslip on a 24-well plate, 2×10^4 U87MG cells detached by treating with trypsin were seeded thereupon. On the next day, the coverslip was incubated at room temperature for 1 hour in a Fura-2 solution (5 μM Fura-2 AM, 1 μM pluronic acid in HEPES buffer, pH 7.4) and washed twice with a HEPES buffer (10 mM HEPES, 150 mM NaCl, 3 mM KCl, 2 mM CaCl2, 1 mM MgCl2, 22 mM sucrose, 10 mM glucose, pH 7.4). The washed coverslip was mounted in a bath adapter (bath adapter) and placed under a calcium imaging microscope (Olympus IX71). After connecting a bath line to the bath adapter, the change in the calcium level of the cells was recorded for 300 seconds (4-second intervals; 340 nm, 380 nm, 340/380 nm ratio) by running a calcium imaging program (Imaging Workbench 6.0, Indec Inc.). After flowing a HEPES buffer for 50 seconds for setting of the baseline, a TFP (trifluoperazine) solution or solution of the phenothiazine derivative represented by Chemical Formula 1 (100 μM in HEPES buffer) were flown as test solutions for 100 seconds and then a HEPES buffer was flown again for 150 seconds. All the test solutions were prepared by diluting a 50 mM stock solution to 100 μM with a HEPES buffer. For analysis of the change of intracellular calcium level by the phenothiazine derivative represented by Chemical Formula 1, data files were read using a calcium imaging analysis program (Clampfit 9.2, Axon Inc.) and only the 340/380 ratio values were taken. The values recorded for the first 50 seconds were set to “0” and graphs were rearranged. Then, the average reactivity to the phenothiazine derivative represented by Chemical Formula 1 for 200 seconds was calculated relative to the average reactivity to TFP (trifluoperazine) for 200 seconds as 100%.

First: FC(F)(F)c1ccc2c(c1)N(CCCCN1CCC(N3CCOCC3)CC1)c1ccccc1S2 [Example 41, 4-(1-(4-(2-(trifluoromethyl)-10H-phenothiazine;-10-yl)butyl)piperidin-4-yl)morpholine]
Second: FC(F)(F)c1ccc2c(c1)N(CCCCN1CCC(N3CCCC3)CC1)c1ccccc1S2 [Example 42, 10-(4-(4-(pyrrolidin-1-yl)piperidin-1-yl)butyl)-2-(trifluoromethyl)-10H-phenothiazine]
The “Reactivity (%)” value of the first is lower: 120% for the first, 134% for the second.

First: FC(F)(F)c1ccc2c(c1)N(CCCCN1CCC(N3CCCCC3)CC1)c1ccccc1S2 [Example 43, 10-(4-(1,4′-bipiperidin-1′-yl)butyl)-2-(trifluoromethyl)-10H-phenothiazine]
Second: Fc1ccc2c(c1)N(CCCCN1CCC(N3CCCC3)CC1)c1ccccc1S2 [Example 77, 2-fluoro-10-(4-(4-(pyrrolidin-1-yl)piperidin-1-yl)butyl)-10H-phenothiazine]
The “Reactivity (%)” value of the first is lower: 123% for the first, 149% for the second.

First: CSc1ccc2c(c1)N(CCCCN1CCC(N3CCCC3)CC1)c1ccccc1S2 [Example 52, 2-(methylthio)-10-(4-(4-(pyrrolidin-1-yl)piperidin-1-yl)butyl)-10H-phenothiazine]
Second: CSc1ccc2c(c1)N(CCCCN1CCC(N3CCCCC3)CC1)c1ccccc1S2 [Example 72, 10-(4-(1,4′-bipiperidin-1′-yl)butyl)-2-(methylthio)-10H-phenothiazine]
The “Reactivity (%)” value of the first is higher: 150% for the first, 131% for the second.

Going from `CSc1ccc2c(c1)N(CCCN1CCC(N3CCCC3)CC1)c1ccccc1S2` [Example 55, 2-(methylthio)-10-(3-(4-(pyrrolidin-1-yl)piperidin-1-yl)propyl)-10H-phenothiazine] to `Clc1ccc2c(c1)N(CCCN1CCC(N3CCCCC3)CC1)c1ccccc1S2` [Example 69, 10-(3-(1,4′-bipiperidin-1′-yl)propyl)-2-chloro-10H-phenothiazine], the “Reactivity (%)” value rises from 114% to 124%.

Compared with `CC1CCN(CCCCN2c3ccccc3Sc3ccc(F)cc32)CC1` [Example 76, 2-fluoro-10-(4-(4-methylpiperidin-1-yl)butyl)-10H-phenothiazine], `CN1CCN(CCCN2c3ccccc3Sc3ccc(C(F)(F)F)cc32)CC1` [TFP, trifluoperazine] is lower in “Reactivity (%)” value: 110% for the first, 100% for the second.

Test system: lung cancer
Experiment: cell viability assay, colony formation assay and soft agar colony formation assay
Format: cell-based
Settings: not given
From the text: (§1) TFP is a phenothiazine-based compound mainly used as an antipsychotic [see patent document 1]. Antipsychotics are psychiatric drugs primarily used to manage psychosis such as schizophrenia, bipolar disorder, etc. and also to manage non-psychiatric disorder such as sleep. The antipsychotics tend to block receptors in the brain's dopamine pathways but cover a wide range of drug targets. […] Based on this, cell viability assay, matrigel invasion assay, colony formation assay and soft agar colony formation assay were conducted to investigate whether TFP suppresses lung cancer.

In the case of `CN1CCN(CCCN2c3ccccc3Sc3ccc(C(F)(F)F)cc32)CC1` [TFP, trifluoperazine], the “migration and proliferation of lung cancer” value was “suppresses the migration and proliferation of lung cancer”.

Test system: cancer cells
Experiment: matrigel invasion assay
Format: cell-based
Settings: not given
From the text: as §1

`CN1CCN(CCCN2c3ccccc3Sc3ccc(C(F)(F)F)cc32)CC1` [TFP, trifluoperazine] was tested, and the “invasion of cancer cells” value was “inhibits the invasion of cancer cells”.
